Here are results for two compounds from patent US20090258889A1, “PESTICIDAL COMPOSITIONS” (Whitmire Micro-Gen Research Laboratories, Inc., priority 2008, published 2009).

Where “and” joins values, the source holds several entries; their conditions need not be identical. Equal values may be shown once.

One assay has as its system German cockroaches. Kind of assay: Topical application toxicity test: mortality of adult German cockroaches 24 hours after treatment. In kind it is in vivo, Blattella germanica (German cockroach). How it is done:
Toxicity evaluations were performed on 7-14 day old adult male and female German cockroaches (SCJ Strain, S.C. Johnson & Son, Racine, Wis.). Approximately 12 cockroaches were transferred to individual 100×20 mm polystyrene Petri dishes and anesthetized with a 15-25 second exposure to carbon dioxide. The inside edge of each Petri dish was lightly coated with mineral oil plus petroleum jelly in a 1:3 (wt/wt) ratio to minimize escape. Anesthetized cockroaches were positioned with their ventral side up, and a 1 μl drop of the diluted test composition was applied to the area between the meso- and metathoracic legs using a Rainin L-10, 10 μl capacity pipette (Rainin Instrument, LLC, Oakland, Calif.). Five replications of 12 male cockroaches were done for each test composition. Separate tests were done using female cockroaches. Results were evaluated at 24 hours following treatment. Cockroaches were scored as either alive (dorsal side up, active movement when abdomen prodded with dissecting probe) or moribund/dead (dorsal side up and no movement when abdomen prodded or ventral side up and insect unable to right itself).
The compositions comprising alcohol and/or mineral oil are described in Table 13.
In this example, the effectiveness of compositions comprising various compounds and/or mineral oil at killing cockroaches was tested.

For the next assay, the system named is cockroaches. Kind of assay: Dose-response mortality test with probit analysis to estimate LD50 and LD10 for cockroaches. The assay is classed as in vivo, cockroach. The method, then: In this example, various mineral oils and alcohols were tested to determine, for cockroaches, the LD50 and LD10 for each.
PD23 and PD28 mineral oils were obtained from Sonneborn LLC, Mahwah, N.J. The physical properties of these oils are shown in Table 11. Each mineral oil was tested to determine the LD50 and LD10 (Table 12).
The tested alcohols were obtained from Sigma-Aldrich Corp., St. Louis, Mo. Each alcohol was tested to determine the LD50 and LD10 (Table 12).

Setting [1] is: Table 14, composite data, amounts as in label.

For `CCCO` [Composition 1-propanol, 1-propanol], the “# dead at 24 h” value with German cockroaches (Table 13, per replicate (10-16 treated), amounts as in label, listed as 1-propanol (0.45 mg)) is 1 and 0 (2×); in the assay with German cockroaches (setting [1]), 1; in the assay with German cockroaches (Table 18, Exxsol D95 mineral oil, amounts as in label) it was 1. Further, the “Proportion dead at 24 h” value is 0.083 and 0.000 (2×) with German cockroaches (Table 13, per replicate, amounts as in label, listed as 1-propanol (0.45 mg)); 0.028 in the assay with German cockroaches (Table 14, composite data); 0.028 in the assay with German cockroaches (Table 18, Exxsol D95 mineral oil). Besides, the “synergy with Exxsol D95 mineral oil (in words)” value in the assay on German cockroaches (cockroaches, 24 h) is “significant synergy”. Further, the “LD10 mg/insect (95% CI)” value with cockroaches is listed as 0.472 mg/insect. In addition, in the assay on cockroaches, the “LD50 mg/insect (95% CI)” value is given as 0.557 mg/insect.
As to `CCC(C)O` (stereo not drawn) [Composition 2-butanol, 2-butanol], the “# dead at 24 h” value in the assay on German cockroaches (Table 13, per replicate (10-16 treated), amounts as in label, listed as 2-butanol (0.8 mg)) was 0 (2×) and 1; in the assay with German cockroaches (setting [1]) it was 1. Also, the “Proportion dead at 24 h” value was 0.000 (2×) and 0.083 in the assay on German cockroaches (Table 13, per replicate, amounts as in label, listed as 2-butanol (0.8 mg)); 0.026 with German cockroaches (Table 14, composite data). In the assay with cockroaches, the “LD10 mg/insect (95% CI)” value was 0.881 mg/insect. Further, in the assay on cockroaches, the “LD50 mg/insect (95% CI)” value was 1.188 mg/insect.
